Measurements: patent US20140107109A1, “AMINO-DIHYDROTHIAZINE AND AMINO-DIOXIDO DIHYDROTHIAZINE COMPOUNDS AS BETA-SECRETASE ANTAGONISTS AND METHODS OF USE” (Amgen Inc., priority 2012, published 2014)

Key:
Cathepsin D (Cat D) = biological target: T1, Cathepsin D (Cat D) (Homo sapiens, UniProt P07339); assay: In vitro enzymatic Cathepsin D (Cat D) FRET assay; format: biochemical; conditions: read-out: CatD IC50
T1 construct: Recombinant Cat D was expressed in CHO cells; made in house; host or cells: CHO cells
Summary of the method: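 Recombinant Cat D expressed in CHO cells, used at 9 nM and pre-incubated one hour with serially diluted inhibitor in DMSO. Peptide substrate carries a fluorophore and quencher flanking the cleavage site; reaction stopped with Tris buffer raising pH to neutrality, then fluorescence read.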

[1] = biological target: Beta Secretase enzyme (BACE1) (Homo sapiens, UniProt P56817); assay: In vitro enzymatic BACE FRET assay; format: biochemical; conditions: average IC50, enzyme assay; read-out: BACE1 FRET assay IC50
Summary of the method: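 BACE1 cleavage of a 50 nM fluorophore/quencher peptide FRET substrate ran for one hour in 0.05 M acetate pH 4.2, 10% DMSO, 100 uM genapol. Tris buffer raised pH to neutrality to stop the reaction before fluorescence was read (excitation 488 nm, […]).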

[2] = tested on: Aβ40 in conditioned medium of cells stably expressing Amyloid Precursor Protein (APP); assay: In vitro BACE cell-based assay (HEK cell assay), Aβ40 sandwich ELISA; conditions: Homo sapiens, HEK293
Summary of the method: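 APP-stably expressing cells (40K/well, grown 24 h in DMEM/10% FBS) were treated 24 h with compounds in 10-point dose response starting at 100 μM or 10 μM, 0.1% DMSO final. Secreted Aβ40 was measured by sandwich ELISA (pAb40 capture, biotinylated 6E10 detection, europium time-resolved fluorescence); IC50 from percent inhibition.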

Sequence of Beta Secretase enzyme (BACE1) (P56817 46-501): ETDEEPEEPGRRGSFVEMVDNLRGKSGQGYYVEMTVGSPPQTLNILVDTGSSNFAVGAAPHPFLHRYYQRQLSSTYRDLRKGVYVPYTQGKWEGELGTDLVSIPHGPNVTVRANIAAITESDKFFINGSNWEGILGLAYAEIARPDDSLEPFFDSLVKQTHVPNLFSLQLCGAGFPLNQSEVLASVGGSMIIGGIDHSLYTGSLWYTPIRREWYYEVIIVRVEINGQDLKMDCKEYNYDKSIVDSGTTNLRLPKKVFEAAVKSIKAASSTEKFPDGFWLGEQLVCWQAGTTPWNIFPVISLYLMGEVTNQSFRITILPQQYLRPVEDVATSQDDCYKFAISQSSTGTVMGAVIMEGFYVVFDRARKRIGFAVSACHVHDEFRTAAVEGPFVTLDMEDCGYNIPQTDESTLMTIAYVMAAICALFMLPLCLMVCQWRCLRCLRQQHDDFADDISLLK
T1 sequence (P07339 65-412, species assumed): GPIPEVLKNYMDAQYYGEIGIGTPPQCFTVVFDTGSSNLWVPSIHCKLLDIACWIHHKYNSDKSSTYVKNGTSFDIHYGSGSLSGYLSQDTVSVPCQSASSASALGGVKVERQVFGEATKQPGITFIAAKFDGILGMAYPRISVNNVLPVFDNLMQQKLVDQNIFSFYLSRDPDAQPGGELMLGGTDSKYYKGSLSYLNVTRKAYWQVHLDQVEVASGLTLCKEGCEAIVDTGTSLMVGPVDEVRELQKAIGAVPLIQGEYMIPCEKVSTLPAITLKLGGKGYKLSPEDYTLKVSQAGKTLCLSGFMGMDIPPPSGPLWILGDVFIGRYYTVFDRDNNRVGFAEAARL

Row | Compound | IC50 (Cathepsin D (Cat D)) [µM] | IC50 [1] [nM] | IC50 ([2]; average IC50, cell assay) [nM] | IC50 ([2]; average IC50, HEK cell assay) [nM]
1 | Cc1nc(Oc2ccc(F)c([C@]3(C)CS(=O)(=O)C(C)(C)C(N)=N3)c2)ccc1C#N [Example 272, 6-(3-((3R)-5-amino-3,6,6-trimethyl-1,1-dioxido-3,6-dihydro-2H-1,4-thiazin-3-yl)-4-fluorophenoxy)-2-methyl-3-pyridinecarbonitrile] | 217 | 2690 | 2020 | –
2 | CC1(C)C(N)=N[C@](C)(c2cc(Oc3ncccc3N)ccc2F)CS1(=O)=O [Example 273, (5R)-5-(5-((3-amino-2-pyridinyl)oxy)-2-fluorophenyl)-2,2,5-trimethyl-5,6-dihydro-2H-1,4-thiazin-3-amine 1,1-dioxide] | > 400 | 1500 | 1010 | –
3 | CC1(C)C(N)=N[C@](C)(c2cc(Oc3ncccc3F)ccc2F)CS1(=O)=O [Example 274, (5R)-5-(2-fluoro-5-((3-fluoro-2-pyridinyl)oxy)phenyl)-2,2,5-trimethyl-5,6-dihydro-2H-1,4-thiazin-3-amine 1,1-dioxide] | 153 | 37.4 | 34.8 | –
4 | CC1(C)C(N)=N[C@](C)(c2cc(Oc3ccc(F)cn3)ccc2F)CS1(=O)=O [Example 275, (5R)-5-(2-fluoro-5-((5-fluoro-2-pyridinyl)oxy)phenyl)-2,2,5-trimethyl-5,6-dihydro-2H-1,4-thiazin-3-amine 1,1-dioxide] | 364 | 840 | 424 | –
5 | Cc1cc(Oc2ccc(F)c([C@]3(C)CS(=O)(=O)C(C)(C)C(N)=N3)c2)ncc1Cl [Example 276, (5R)-5-(5-((5-chloro-4-methyl-2-pyridinyl)oxy)-2-fluorophenyl)-2,2,5-trimethyl-5,6-dihydro-2H-1,4-thiazin-3-amine 1,1-dioxide] | 421 | 2710 | 2630 | –
6 | CC1(C)C(N)=N[C@](C)(c2cc(Oc3ncc(C(F)(F)F)cc3F)ccc2F)CS1(=O)=O [Example 277, (5R)-5-(2-fluoro-5-((3-fluoro-5-(trifluoromethyl)-2-pyridinyl)oxy)phenyl)-2,2,5-trimethyl-5,6-dihydro-2H-1,4-thiazin-3-amine 1,1-dioxide] | 331 | 1210 | 1150 | –
7 | CC1(C)C(N)=N[C@](C)(c2cc(Oc3ncccc3C(F)(F)F)ccc2F)CS1(=O)=O [Example 278, (5R)-5-(2-fluoro-5-((3-(trifluoromethyl)-2-pyridinyl)oxy)phenyl)-2,2,5-trimethyl-5,6-dihydro-2H-1,4-thiazin-3-amine 1,1-dioxide] | 147 | 341 | 359 | –
8 | CC1(C)C(N)=N[C@](C)(c2cc(Oc3ccc(C(F)(F)F)cn3)ccc2F)CS1(=O)=O [Example 279, (5R)-5-(2-fluoro-5-((5-(trifluoromethyl)-2-pyridinyl)oxy)phenyl)-2,2,5-trimethyl-5,6-dihydro-2H-1,4-thiazin-3-amine 1,1-dioxide] | 188 | 5600 | 2090 | –
9 | CC1(C)C(N)=N[C@](C)(c2cc(Oc3cc(C#N)ccn3)ccc2F)CS1(=O)=O [Example 280, 2-(3-((3R)-5-amino-3,6,6-trimethyl-1,1-dioxido-3,6-dihydro-2H-1,4-thiazin-3-yl)-4-fluorophenoxy)-4-pyridinecarbonitrile] | 395 | 39 | 52.1 | –
10 | CC1(C)C(N)=N[C@](C)(c2cc(Oc3cc(-c4ccc(Cl)cn4)ccn3)ccc2F)CS1(=O)=O [Example 281, (5R)-5-(5-((5-chloro-2,4′-bipyridin-2′-yl)oxy)-2-fluorophenyl)-2,2,5-trimethyl-5,6-dihydro-2H-1,4-thiazin-3-amine 1,1-dioxide] | 61.2 | 807 | 1120 | –
11 | CC1(C)C(N)=N[C@](C)(c2cc(Oc3ccc(C#N)cn3)ccc2F)CS1(=O)=O [Example 282, 6-(3-((3R)-5-amino-3,6,6-trimethyl-1,1-dioxido-3,6-dihydro-2H-1,4-thiazin-3-yl)-4-fluorophenoxy)-3-pyridinecarbonitrile] | 227 | 1560 | 1150 | –
12 | CC1(C)C(N)=N[C@](C)(c2cc(Oc3cccc(C#N)n3)ccc2F)CS1(=O)=O [Example 283, 6-(3-((3R)-5-amino-3,6,6-trimethyl-1,1-dioxido-3,6-dihydro-2H-1,4-thiazin-3-yl)-4-fluorophenoxy)-2-pyridinecarbonitrile] | 12.9 | 91.9 | 82.8 | –
13 | CC1(C)C(N)=N[C@](C)(c2cc(Oc3ccc(F)c(C(F)(F)F)n3)ccc2F)CS1(=O)=O [Example 284, (5R)-5-(2-fluoro-5-((5-fluoro-6-(trifluoromethyl)-2-pyridinyl)oxy)phenyl)-2,2,5-trimethyl-5,6-dihydro-2H-1,4-thiazin-3-amine 1,1-dioxide] | 79.1 | 769 | 1640 | –
14 | CC1(C)C(N)=N[C@](C)(c2cc(Oc3cc(Br)ccn3)ccc2F)CS1(=O)=O [Example 285, (5R)-5-(5-((4-bromo-2-pyridinyl)oxy)-2-fluorophenyl)-2,2,5-trimethyl-5,6-dihydro-2H-1,4-thiazin-3-amine 1,1-dioxide] | 374 | 37.5 | 91.8 | –
15 | CC#Cc1ccnc(Oc2ccc(F)c([C@]3(C)CS(=O)(=O)C(C)(C)C(N)=N3)c2)c1 [Example 286, (5R)-5-(2-fluoro-5-((4-(1-propyn-1-yl)-2-pyridinyl)oxy)phenyl)-2,2,5-trimethyl-5,6-dihydro-2H-1,4-thiazin-3-amine 1,1-dioxide] | 119 | 228 | 787 | –
16 | CC1(C)C(N)=N[C@](C)(c2cc(Oc3cc(-c4ccccc4)ccn3)ccc2F)CS1(=O)=O [Example 289, (5R)-5-(2-fluoro-5-((4-phenyl-2-pyridinyl)oxy)phenyl)-2,2,5-trimethyl-5,6-dihydro-2H-1,4-thiazin-3-amine 1,1-dioxide] | 92.7 | 50.9 | 568 | –
17 | CC1(C)C(N)=N[C@](C)(c2cc(Oc3cc(-c4ccncc4)ccn3)ccc2F)CS1(=O)=O [Example 290, (5R)-5-(5-(4,4′-bipyridin-2-yloxy)-2-fluorophenyl)-2,2,5-trimethyl-5,6-dihydro-2H-1,4-thiazin-3-amine 1,1-dioxide] | 826 | 328 | 318 | –
18 | CC1(C)C(N)=N[C@](C)(c2cc(Oc3nccc4ccsc34)ccc2F)CS1(=O)=O [Example 291, (5R)-5-(2-fluoro-5-(thieno[2,3-c]pyridin-7-yloxy)phenyl)-2,2,5-trimethyl-5,6-dihydro-2H-1,4-thiazin-3-amine 1,1-dioxide] | 242 | 517 | 914 | –
19 | CC1(C)C(N)=N[C@](C)(c2cc(Oc3ncc(C(N)=O)c4sccc34)ccc2F)CS1(=O)=O [Example 292, 4-(3-((3R)-5-amino-3,6,6-trimethyl-1,1-dioxido-3,6-dihydro-2H-1,4-thiazin-3-yl)-4-fluorophenoxy)thieno[3,2-c]pyridine-7-carboxamide] | 219 | 2010 | – | 2230
20 | CC1(C)C(N)=N[C@](C)(c2cc(Oc3nccc(-c4ccccc4)c3C#N)ccc2F)CS1(=O)=O [Example 293, 2-(3-((3R)-5-amino-3,6,6-trimethyl-1,1-dioxido-3,6-dihydro-2H-1,4-thiazin-3-yl)-4-fluorophenoxy)-4-phenyl-3-pyridinecarbonitrile] | 50.9 | 836 | – | 680
21 | CC1(C)C(N)=N[C@](C)(c2cc(Oc3nccc4ccccc34)ccc2F)CS1(=O)=O [Example 294, (5R)-5-(2-fluoro-5-(1-isoquinolinyloxy)phenyl)-2,2,5-trimethyl-5,6-dihydro-2H-1,4-thiazin-3-amine 1,1-dioxide] | 202 | 1050 | – | 1140
22 | Cc1cc(C)c(C#N)c(Oc2ccc(F)c([C@]3(C)CS(=O)(=O)C(C)(C)C(N)=N3)c2)n1 [Example 295, 2-(3-((3R)-5-amino-3,6,6-trimethyl-1,1-dioxido-3,6-dihydro-2H-1,4-thiazin-3-yl)-4-fluorophenoxy)-4,6-dimethyl-3-pyridinecarbonitrile] | 1690 | 2640 | – | 2480
23 | Cc1ccc(C#N)c(Oc2ccc(F)c([C@]3(C)CS(=O)(=O)C(C)(C)C(N)=N3)c2)n1 [Example 296, 2-(3-((3R)-5-amino-3,6,6-trimethyl-1,1-dioxido-3,6-dihydro-2H-1,4-thiazin-3-yl)-4-fluorophenoxy)-6-methyl-3-pyridinecarbonitrile] | 232 | 263 | – | 515
24 | COc1cccnc1Oc1ccc(F)c([C@]2(C)CS(=O)(=O)C(C)(C)C(N)=N2)c1 [Example 297, (5R)-5-(2-fluoro-5-((3-methoxy-2-pyridinyl)oxy)phenyl)-2,2,5-trimethyl-5,6-dihydro-2H-1,4-thiazin-3-amine 1,1-dioxide] | 975 | 202 | – | 219
